Measurements reported in US8618169B2, “Derivatives of N-phenylanthranilic acid and 2-benzimidazolone as potassium channel and/or neuron activity modulators” (Ramot at Tel-Aviv University Ltd., priority 2002, dated 2013).

What was measured:
small DRG neurons = experiment: Spiking activity of DRG neurons, current-clamp; format: cell-based, mouse
Method: Dorsal root ganglion (DRG) neurons were dissected from 2-4 days-old ICR mice that were decapitated. DRGs were placed in Hank's balanced saline solution (HBSS) and were prepared by enzymatic dissociation. Briefly, cells were incubated for 30 minutes in 5 mg/ml dispase (Sigma), 2 mg/ml collagenase type 1A (Sigma) and 0.1 mg/ml DNase (Invitrogen/Gibco) in calcium and magnesium-free HBSS, and the ganglia were thereafter mechanically triturated with a firepolished glass Pasteur pipette. The ganglia were then centrifuged for 5 minutes at 80×g and resuspended in DMEM supplemented with 2 mM L-glutamine, 16.5 mM NaCO3, 6 g/l glucose, 5 ml penicillin/streptomycin and 10% fetal calf serum. For electrophysiological recording, dissociated neurons were plated on 13 mm glass coverslips previously coated with poly-D-lysine (1 mg/ml) and laminin (10 μg/ml) and were used after 2-6 days in culture.
For current measurements in CHO cells, recordings were performed 40 hours following transfection, using the whole-cell configuration of the patch-clamp technique [Hamill et al., Nature 294: 462-464 (1981)]. Signals were amplified using an Axopatch 200B patch-clamp amplifier (Axon Instruments, Foster City, Calif., USA), sampled at 2 kHz and filtered at 800 Hz via a 4-pole Bessel low pass filter. Data were acquired using pClamp 8.1 software (Axon Instruments, Foster City, Calif., USA) and an Elonex Pentium III computer in conjunction with a DigiData 1322A interface (Axon Instruments, Foster City, Calif., USA). The patch pipettes were pulled from borosilicate glass (Warner Instrument. Corp., Hamden, Conn., USA) with a resistance of 2-5 MΩ and were filled with (in mM): 130 KCl, 1 MgCl2, 5 K2ATP, 5 EGTA, 10 HEPES, adjusted with KOH at pH 7.4 (290 mOsm). The external solution contained (in [mM]): 140 NaCl, 4 KCl, 1.8 CaCl2, 1.2 MgCl2, 11 glucose, 5.5 HEPES, adjusted with NaOH at pH 7.4 (310 mOsm). Series resistances (3-13 MΩ) were compensated (75-90%) and periodically monitored. […]

[1] = test system: hippocampal pyramidal neurons; experiment: Spontaneous EPSCs of hippocampal pyramidal neuron cultures, voltage-clamp; format: cell-based
Method: To further determine the synaptic site of M-channel activation by Compound 6, its effects on spontaneous excitatory postsynaptic currents (EPSCs) that could be recorded from dense networks of hippocampal pyramidal neuron cultures was tested.
In FIGS. 30B and 30C, burst activity before (control), in the presence (Compound 6) and after (Wash) application of 5 μM (FIG. 30B) and 10 μM (FIG. 30C) Compound 6, as recorded at the voltage clamp mode is shown. In FIG. 30D, burst activity before (control) and in the presence of 25 μM Linopirdine is shown. In FIG. 30E, the normalized number of bursts appeared in 180 seconds time period for 5 μM (left panel), 10 μM (mid panel) of Compound 6 and 25 μM linopirdine (right panel) are shown. The holding potential was −70 mV. n=5-6.
Thus, using the voltage-clamp configuration of the patch-clamp technique, spontaneous EPSCs were isolated at −70 mV (holding potential) in the presence of 10 μM bicuculline and 10 μM picrotoxin to block GABAA receptor-mediated inhibitory postsynaptic currents. As is shown in FIG. 30A, under control conditions, the frequency of EPSCs is variable depending of the density of the hippocampal culture, ranging from 0.4 Hz to 2 Hz. […] However, the majority of the EPSCs measured at −70 mV under the experimental recording conditions are mediated by AMPA receptors as most of the currents are blocked by 10 μM NBQX, leaving only a small fraction EPSC sensitive to the NMDA receptor blocker DL-AP5 (FIG. 30A).

KCNQ1 = target: T1, KCNQ1 (Homo sapiens, UniProt P51787); experiment: KCNQ1 current amplitude in Xenopus oocytes; format: cell-based; conditions: 50 μM, test potentials −50 to 0 mV, data not shown
T1 construct: expressed in transfected cells; host or cells: Xenopus oocytes (cRNA microinjection)
Method: (§1) Briefly, two-electrode voltage-clamp measurements were performed 3-5 days following cRNA microinjection into oocytes. Oocytes were bathed in a modified ND96 solution containing (in mM): 96 NaCl, 2 KCl, 1 MgCl2, 0.1 CaCl2 and 5 HEPES titrated to pH=7.4 with NaOH. Whole-cell currents were recorded at room temperature (20° C.-22° C.) using a GeneClamp 500 amplifier (Axon Instruments, Foster City, Calif., USA). […] Current signals were filtered at 0.5 kHz and digitized at 2 kHz.
Data are expressed as mean±SEM of 5-8 separate experiments.
(§2) The current amplitude of the various channels was measured from a −80 mV holding potential.

KCNQ1/KCNE1 = target: T2, KCNQ1/KCNE1 (Homo sapiens, UniProt P51787); experiment: KCNQ1/KCNE1 (IKS) current amplitude; format: cell-based; conditions: 50 μM, test potentials −50 to 0 mV, data not shown
T2 construct: expressed in transfected cells; host or cells: Xenopus oocytes (stated for Compound 6)
Method: as §1, §2

SMILES	effect on trains of evoked spikes (small DRG neurons; 15 μM, 75 pA, 400 ms)	effect on solitary evoked spike (small DRG neurons; 300 pA, 1 ms pulse)	frequency of spontaneous EPSCs ([1]; 5 μM, −70 mV holding potential)	occurrence of spontaneous EPSCs ([1]; ≧10 μM)	effect on homomeric KCNQ1 currents (KCNQ1)	effect on heteromeric KCNQ1/KCNE1 currents (KCNQ1/KCNE1)
O=C(Cc1ccccc1Nc1c(Cl)cccc1Cl)NCCOCCO [Compound 6]	potently and reversibly blocked	reversibly prevent the generation of the single action potential	up to 49±5 % of control	totally suppresses		
Cc1ccc(Cl)c(Nc2ccccc2C(=O)O)c1Cl [Compound 1, Meclofenamic acid]					not enhanced	not enhanced
